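Values below derive from 48-hour exposures of cells grown in 96-well plates, with endpoints linearly interpolated between the two concentrations bracketing the appropriate inhibition level. Here, GI50 denotes the concentration required for 50% inhibition of growth. TGI denotes the concentration required for complete inhibition of growth.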
Assays:
Experiment in all cases: growth of human tumour cells (NCI), 48 h
[1] = test system: 786-0 renal
[2] = test system: A549 NSCLC
[3] = test system: ACHN renal
[4] = test system: BT-549 breast
[5] = test system: CAKI-1 renal
[6] = test system: CCRF-CEM leukemia
[7] = test system: COLO 205 colon
[8] = test system: DU-145 prostate
[9] = test system: EKVX NSCLC
[10] = test system: HCC-2998 colon
[11] = test system: HCT-116 colon
[12] = test system: HCT-15 colon
[13] = test system: HL-60(TB) leukemia
[14] = test system: HOP-62 NSCLC
[15] = test system: HOP-92 NSCLC
[16] = test system: HS 578T breast
[17] = test system: HT29 colon
[18] = test system: IGROV1 ovarian
[19] = test system: K-562 leukemia
[20] = test system: KM12 colon
[21] = test system: LOX IMVI melanoma
[22] = test system: M14 melanoma
[23] = test system: MALME-3M melanoma
[24] = test system: MCF7 breast
[25] = test system: MDA-MB-231 breast
[26] = test system: MDA-MB-435
[27] = test system: NCI-H226 lung
[28] = test system: NCI-H23 lung
[29] = test system: NCI-H460 lung
[30] = test system: NCI-H522 lung
[31] = test system: NCI/ADR-RES ovarian
[32] = test system: OVCAR-3 ovarian
[33] = test system: OVCAR-4 ovarian
[34] = test system: OVCAR-5 ovarian
[35] = test system: OVCAR-8 ovarian
[36] = test system: PC-3 prostate
[37] = test system: RPMI-8226 leukemia
[38] = test system: RXF 393 renal
[39] = test system: SF-268 CNS
[40] = test system: SF-295 CNS
[41] = test system: SF-539 CNS
[42] = test system: SK-MEL-2 melanoma
[43] = test system: SK-MEL-28 melanoma
[44] = test system: SK-MEL-5 melanoma
[45] = test system: SK-OV-3 ovarian
[46] = test system: SN12C renal
[47] = test system: SNB-19 CNS
[48] = test system: SNB-75 CNS
[49] = test system: SR leukemia
[50] = test system: SW-620 colon
[51] = test system: TK-10 renal
[52] = test system: U251 CNS
[53] = test system: UACC-257 melanoma
[54] = test system: UACC-62 melanoma
[55] = test system: UO-31 renal

N#Cc1cccc(NC(=O)c2oc3ccccc3c2-c2cnn(-c3ccccc3)c2)c1
GI50 [1]: 221 µM | TGI [1]: > 500 µM | GI50 [2]: > 500 µM | TGI [2]: > 500 µM | GI50 [3]: > 500 µM | TGI [3]: > 500 µM | GI50 [4]: 167 µM | TGI [4]: > 500 µM | GI50 [5]: > 500 µM | TGI [5]: > 500 µM | GI50 [6]: > 500 µM | TGI [6]: > 500 µM | GI50 [7]: > 500 µM | TGI [7]: > 500 µM | GI50 [8]: > 500 µM | TGI [8]: > 500 µM | GI50 [9]: > 500 µM | TGI [9]: > 500 µM | GI50 [10]: > 500 µM | TGI [10]: > 500 µM | GI50 [11]: > 500 µM | TGI [11]: > 500 µM | GI50 [12]: > 500 µM | TGI [12]: > 500 µM | GI50 [13]: > 500 µM | TGI [13]: > 500 µM | GI50 [14]: 320 µM | TGI [14]: > 500 µM | GI50 [15]: 121 µM | TGI [15]: > 500 µM | GI50 [16]: 171 µM | TGI [16]: > 500 µM | GI50 [17]: > 500 µM | TGI [17]: > 500 µM | GI50 [18]: 120 µM | TGI [18]: > 500 µM | GI50 [19]: > 500 µM | TGI [19]: > 500 µM | GI50 [20]: > 500 µM | TGI [20]: > 500 µM | GI50 [21]: 308 µM | TGI [21]: > 500 µM | GI50 [22]: > 500 µM | TGI [22]: > 500 µM | GI50 [23]: 278 µM | TGI [23]: > 500 µM | GI50 [24]: 209 µM | TGI [24]: > 500 µM | GI50 [25]: 90 µM | TGI [25]: > 500 µM | GI50 [26]: > 500 µM | TGI [26]: > 500 µM | GI50 [27]: > 500 µM | TGI [27]: > 500 µM | GI50 [28]: > 500 µM | TGI [28]: > 500 µM | GI50 [29]: > 500 µM | TGI [29]: > 500 µM | GI50 [30]: > 500 µM | TGI [30]: > 500 µM | GI50 [31]: > 500 µM | TGI [31]: > 500 µM | GI50 [32]: > 500 µM | TGI [32]: > 500 µM | GI50 [33]: 193 µM | TGI [33]: > 500 µM | GI50 [34]: > 500 µM | TGI [34]: > 500 µM | GI50 [35]: > 500 µM | TGI [35]: > 500 µM | GI50 [36]: > 500 µM | TGI [36]: > 500 µM | GI50 [37]: > 500 µM | TGI [37]: > 500 µM | GI50 [38]: 185 µM | TGI [38]: > 500 µM | GI50 [39]: 304 µM | TGI [39]: > 500 µM | GI50 [40]: 430 µM | TGI [40]: > 500 µM | GI50 [41]: 137 µM | TGI [41]: > 500 µM | GI50 [42]: > 500 µM | TGI [42]: > 500 µM | GI50 [43]: > 500 µM | TGI [43]: > 500 µM | GI50 [44]: > 500 µM | TGI [44]: > 500 µM | GI50 [45]: > 500 µM | TGI [45]: > 500 µM | GI50 [46]: > 500 µM | TGI [46]: > 500 µM | GI50 [47]: 192 µM | TGI [47]: > 500 µM | GI50 [48]: 82 µM | TGI [48]: 493 µM | GI50 [49]: 148 µM | TGI [49]: > 500 µM | GI50 [50]: > 500 µM | TGI [50]: > 500 µM | GI50 [51]: 317 µM | TGI [51]: > 500 µM | GI50 [52]: 256 µM | TGI [52]: > 500 µM | GI50 [53]: > 500 µM | TGI [53]: > 500 µM | GI50 [54]: > 500 µM | TGI [54]: > 500 µM | GI50 [55]: 41.2 µM | TGI [55]: > 500 µM

Source: PubChem BioAssay (NCI)
